Results as given in patent US20030104507A1, “Method for detection of ATP” (priority 2001, published 2003).

Test system: ATPase activity endogenous to L929 cell lysate
Test: Detergent inhibition of ATPase endogenous to L929 cell lysate (ATP remaining by luciferase luminescence, 22° C.)
Type: biochemical
Design: key to Relative ATPase Activity, slope det/slope lysate: slope with detergent / slope without; ≥1.0 = 100% activity, 0.5 = 50%
Method: Three separate detergents in each of four detergent classes were tested: anionic [SDS (Sodium dodecyl sulfate), Bioterge (an α olefin sulfate), and sodium deoxycholate], nonionic [TRITON X-100, BigCHAP (N,N-bis(3-D-Gluconamidopropyl)cholamide) and THESIT (polyethylene glycol 400 dodecyl ether, Fluka, #88315)], cationic [BDDABr (Benzyldimethyldodecylammonium bromide), CTAB (Cetyltrimethylammonium bromide), and DTAB (dodecyltrimethylammonium bromide)] and zwitterionic [CHAPS (3[(3-Cholamidopropyl)dimethylammonio]propanesulfonic acid), CHAPSO (3-([3-Cholamidopropyl]dimethylammonio)-2-hydroxy-1-propanesulfonate), and Sulfobetaine 3-10 ([…]-N,N-dimethyl-3-ammonio-1-propanesulfonate)]. Detergents were obtained from Sigma, Fluka and Aldrich.
L929 cells (ATCC CCL-1; 1.5×10^5 cells/ml) in F12/DMEM (Hyclone, SH30023) containing 10% horse serum (Hyclone, SH30074) were frozen and thawed for four cycles to create a cell lysate. Then 50 μl of stock detergent solutions [10%, 5.0%, 1.0%, and 0.5% (w/v)] were separately added to 450 μl cell lysate, creating a final detergent concentration in the cell lysate sample of 1.0%, 0.5%, 0.1%, and 0.05%, respectively (these percentage values are those used in Tables D and E herein below). Control samples contained either lysate only or 1.0 μM ATP in 15 mM HEPES buffer (pH 7.5). All samples were incubated at 22° C. (room temperature) for the duration of the experiment.
At various timepoints, 20 μl from each sample/detergent mixture was added to a 96-well luminometer plate in triplicate, and then 100 μl of a solution (“luciferase-luciferin” or “L/L reagent”) containing 25 mM HEPES buffer (pH 7.5), 40 μg luciferase enzyme LucPpe2m146 (Promega, E140), 100 μM luciferin (Promega), and 10 mM MgSO4 was added to each well. The L/L reagent was stored at 4° C. for the duration of the experiment and then allowed to reach ambient temperature just before assaying. After mixing the contents of the plate, light output was measured with a Dynex MLX microtiter plate luminometer (Chantilly, Va.), 0.5 second reads per well with the first measurement taken five minutes after the detergent solution was combined with the sample. The average relative light units and the timepoint at which it was measured (rlu; Table D) and percent of remaining luciferase activity at the timepoint (Table E) are reported; controls were run with each set of experimental conditions as indicated. The cationic and anionic detergents were assayed on one day with one set of controls. The zwitterionic and nonionic detergents were assayed on a separate day with a separate set of controls. The DTAB at 0.5% was assayed on both days (1 and 2).
The experiment was performed as detailed in Example 1. The average relative light unit values and the percent of ATP remaining values are listed below in Table F and G respectively.
The log of the percent of ATP remaining after original timepoint values from Table E and Table G were plotted on the y axis against time (in minutes) on the x axis. The slope of the line generated by these values in the presence of detergent was divided by the slope of the line generated by the values in the absence of detergent (lysate control) resulting in the Relative ATPase Activity values listed below in Table H.
A relative activity value of 1.0 or greater indicates 100% cellular ATPase activity at the concentration of detergent tested. A relative activity value of 0.5 indicates a two-fold (or 50%) decrease in the level of cellular ATPase activity at the concentration of detergent tested when compared to the ATPase activity level in the absence of the detergent. A relative activity value of 0.2 indicates a five-fold (or 80%) decrease in the level of cellular ATPase activity at the concentration of detergent tested when compared to the ATPase activity level in the absence of the detergent.

C[C@H](CCC(=O)NCCC[N+](C)(C)CCCS(=O)(=O)[O-])[C@H]1CC[C@H]2[C@@H]3[C@H](O)C[C@@H]4C[C@H](O)CC[C@]4(C)[C@H]3C[C@H](O)[C@]12C [CHAPS, 3[(3-Cholamidopropyl)dimethylammonio]propanesulfonic acid]
Average Relative Light Unit Values (0.05% detergent, 5 min): 6356.62 rlu | Percent ATP Remaining (0.05% detergent, 5 min): 100% | Average Relative Light Unit Values (0.05% detergent, 75 min): 2305.56 rlu | Percent ATP Remaining (0.05% detergent, 75 min): 36.3% | Average Relative Light Unit Values (0.05% detergent, 169 min): 1143.02 rlu | Percent ATP Remaining (0.05% detergent, 169 min): 18.0% | Average Relative Light Unit Values (0.05% detergent, 222 min): 500.80 rlu | Percent ATP Remaining (0.05% detergent, 222 min): 7.9% | Average Relative Light Unit Values (0.05% detergent, 260 min): 240.81 rlu | Percent ATP Remaining (0.05% detergent, 260 min): 3.8% | Relative ATPase Activity, slope det/slope lysate (0.05 percent detergent): 1.061 | Slope (log percent ATP remaining vs time in minutes) (0.05 percent detergent): −0.0056 | Average Relative Light Unit Values (0.1% detergent, 5 min): 6515.77 rlu | Percent ATP Remaining (0.1% detergent, 5 min): 100% | Average Relative Light Unit Values (0.1% detergent, 75 min): 2583.65 rlu | Percent ATP Remaining (0.1% detergent, 75 min): 39.7% | Average Relative Light Unit Values (0.1% detergent, 169 min): 1236.53 rlu | Percent ATP Remaining (0.1% detergent, 169 min): 19.0% | Average Relative Light Unit Values (0.1% detergent, 222 min): 448.96 rlu | Percent ATP Remaining (0.1% detergent, 222 min): 8.6% | Average Relative Light Unit Values (0.1% detergent, 260 min): 284.18 rlu | Percent ATP Remaining (0.1% detergent, 260 min): 4.4% | Relative ATPase Activity, slope det/slope lysate (0.10 percent detergent): 1.023 | Slope (log percent ATP remaining vs time in minutes) (0.10 percent detergent): −0.0054 | Average Relative Light Unit Values (0.5% detergent, 5 min): 7368.91 rlu | Percent ATP Remaining (0.5% detergent, 5 min): 100% | Average Relative Light Unit Values (0.5% detergent, 75 min): 4048.24 rlu | Percent ATP Remaining (0.5% detergent, 75 min): 54.9% | Average Relative Light Unit Values (0.5% detergent, 169 min): 2548.39 rlu | Percent ATP Remaining (0.5% detergent, 169 min): 34.6% | Average Relative Light Unit Values (0.5% detergent, 222 min): 1438.57 rlu | Percent ATP Remaining (0.5% detergent, 222 min): 19.5% | Average Relative Light Unit Values (0.5% detergent, 260 min): 909.15 rlu | Percent ATP Remaining (0.5% detergent, 260 min): 12.3% | Relative ATPase Activity, slope det/slope lysate (0.50 percent detergent): 0.688 | Slope (log percent ATP remaining vs time in minutes) (0.50 percent detergent): −0.0036 | Average Relative Light Unit Values (1.0% detergent, 5 min): 7241.33 rlu | Percent ATP Remaining (1.0% detergent, 5 min): 100% | Average Relative Light Unit Values (1.0% detergent, 75 min): 3816.06 rlu | Percent ATP Remaining (1.0% detergent, 75 min): 52.7% | Average Relative Light Unit Values (1.0% detergent, 169 min): 2348.28 rlu | Percent ATP Remaining (1.0% detergent, 169 min): 32.4% | Average Relative Light Unit Values (1.0% detergent, 222 min): 1322.30 rlu | Percent ATP Remaining (1.0% detergent, 222 min): 18.3% | Average Relative Light Unit Values (1.0% detergent, 260 min): 809.22 rlu | Percent ATP Remaining (1.0% detergent, 260 min): 11.2% | Relative ATPase Activity, slope det/slope lysate (1.00 percent detergent): 0.715 | Slope (log percent ATP remaining vs time in minutes) (1.00 percent detergent): −0.0038

C[C@H](CCC(=O)NCCC[N+](C)(C)CC(O)CS(=O)(=O)[O-])[C@H]1CC[C@H]2[C@@H]3[C@H](O)C[C@@H]4C[C@H](O)CC[C@]4(C)[C@H]3C[C@H](O)[C@]12C (stereo partly drawn) [CHAPSO, 3-([3-Cholamidopropyl]dimethylammonio)-2-hydroxy-1-propanesulfonate]
Average Relative Light Unit Values (0.05% detergent, 5 min): 6396.53 rlu | Percent ATP Remaining (0.05% detergent, 5 min): 100% | Average Relative Light Unit Values (0.05% detergent, 75 min): 2424.54 rlu | Percent ATP Remaining (0.05% detergent, 75 min): 37.9% | Average Relative Light Unit Values (0.05% detergent, 169 min): 1124.83 rlu | Percent ATP Remaining (0.05% detergent, 169 min): 17.6% | Average Relative Light Unit Values (0.05% detergent, 222 min): 480.09 rlu | Percent ATP Remaining (0.05% detergent, 222 min): 7.5% | Average Relative Light Unit Values (0.05% detergent, 260 min): 238.80 rlu | Percent ATP Remaining (0.05% detergent, 260 min): 3.7% | Relative ATPase Activity, slope det/slope lysate (0.05 percent detergent): 1.080 | Slope (log percent ATP remaining vs time in minutes) (0.05 percent detergent): −0.0057 | Average Relative Light Unit Values (0.1% detergent, 5 min): 6549.85 rlu | Percent ATP Remaining (0.1% detergent, 5 min): 100% | Average Relative Light Unit Values (0.1% detergent, 75 min): 2584.56 rlu | Percent ATP Remaining (0.1% detergent, 75 min): 39.5% | Average Relative Light Unit Values (0.1% detergent, 169 min): 1210.14 rlu | Percent ATP Remaining (0.1% detergent, 169 min): 18.5% | Average Relative Light Unit Values (0.1% detergent, 222 min): 558.69 rlu | Percent ATP Remaining (0.1% detergent, 222 min): 8.5% | Average Relative Light Unit Values (0.1% detergent, 260 min): 280.84 rlu | Percent ATP Remaining (0.1% detergent, 260 min): 4.3% | Relative ATPase Activity, slope det/slope lysate (0.10 percent detergent): 1.030 | Slope (log percent ATP remaining vs time in minutes) (0.10 percent detergent): −0.0054 | Average Relative Light Unit Values (0.5% detergent, 5 min): 7422.26 rlu | Percent ATP Remaining (0.5% detergent, 5 min): 100% | Average Relative Light Unit Values (0.5% detergent, 75 min): 4089.32 rlu | Percent ATP Remaining (0.5% detergent, 75 min): 55.1% | Average Relative Light Unit Values (0.5% detergent, 169 min): 2581.01 rlu | Percent ATP Remaining (0.5% detergent, 169 min): 34.8% | Average Relative Light Unit Values (0.5% detergent, 222 min): 1460.54 rlu | Percent ATP Remaining (0.5% detergent, 222 min): 19.7% | Average Relative Light Unit Values (0.5% detergent, 260 min): 923.81 rlu | Percent ATP Remaining (0.5% detergent, 260 min): 12.4% | Relative ATPase Activity, slope det/slope lysate (0.50 percent detergent): 0.685 | Slope (log percent ATP remaining vs time in minutes) (0.50 percent detergent): −0.0036 | Average Relative Light Unit Values (1.0% detergent, 5 min): 7160.63 rlu | Percent ATP Remaining (1.0% detergent, 5 min): 100% | Average Relative Light Unit Values (1.0% detergent, 75 min): 3803.84 rlu | Percent ATP Remaining (1.0% detergent, 75 min): 53.1% | Average Relative Light Unit Values (1.0% detergent, 169 min): 2376.31 rlu | Percent ATP Remaining (1.0% detergent, 169 min): 33.2% | Average Relative Light Unit Values (1.0% detergent, 222 min): 1332.97 rlu | Percent ATP Remaining (1.0% detergent, 222 min): 18.6% | Average Relative Light Unit Values (1.0% detergent, 260 min): 840.57 rlu | Percent ATP Remaining (1.0% detergent, 260 min): 11.7% | Relative ATPase Activity, slope det/slope lysate (1.00 percent detergent): 0.703 | Slope (log percent ATP remaining vs time in minutes) (1.00 percent detergent): −0.0037
